# Key:
# Test in all cases: relative viability (nuclei count vs DMSO), 5 days (fraction); higher = more cells survive
# BI-D1870 + Linsitinib = compound: CC(C)CCN1c2nc(Nc3cc(F)c(O)c(F)c3)ncc2N(C)C(=O)C1C [BI-D1870] + C[C@]1(O)C[C@@H](c2nc(-c3ccc4ccc(-c5ccccc5)nc4c3)c3c(N)nccn32)C1 [Linsitinib] (partner 1 µM)
# Summary of the method: (§1)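 Nuclei were stained with Hoechst during a one-step fixation (final 0.05% Triton X-100, 1% formaldehyde, 1 ug/ml Hoechst) carried out 5 days after dosing, then counted on 4× images. The cells, lung cancer lines in 1536-well plates, had been dosed by pin tool the day after seeding with one drug alone or a fixed anchor-drug dose plus five library-drug doses (not always all listed) in √10 steps. Relative viability is the nuclei count in treated wells divided by that in vehicle wells, and each value is the median of duplicate plates.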
# BI-D1870 + Crizotinib = compound: CC(C)CCN1c2nc(Nc3cc(F)c(O)c(F)c3)ncc2N(C)C(=O)C1C [BI-D1870] + C[C@@H](Oc1cc(-c2cnn(C3CCNCC3)c2)cnc1N)c1c(Cl)ccc(F)c1Cl [Crizotinib] (partner 1 µM)
# Summary of the method: as §1
# Zebularine + Pictilisib = compound: O=c1ncccn1[C@@H]1O[C@H](CO)[C@@H](O)[C@H]1O [Zebularine] + CS(=O)(=O)N1CCN(Cc2cc3nc(-c4cccc5[nH]ncc45)nc(N4CCOCC4)c3s2)CC1 [Pictilisib] (partner 1 µM)
# Summary of the method: as §1
# BI-D1870 + Foretinib = compound: CC(C)CCN1c2nc(Nc3cc(F)c(O)c(F)c3)ncc2N(C)C(=O)C1C [BI-D1870] + COc1cc2c(Oc3ccc(NC(=O)C4(C(=O)Nc5ccc(F)cc5)CC4)cc3F)ccnc2cc1OCCCN1CCOCC1 [Foretinib] (partner 0.25 µM)
# Summary of the method: as §1
Cell Line,relative viability (BI-D1870 + Linsitinib; first compound 0.04 µM),relative viability (BI-D1870 + Linsitinib; first compound 0.1265 µM),relative viability (BI-D1870 + Linsitinib; first compound 0.4 µM),relative viability (BI-D1870 + Linsitinib; first compound 1.265 µM),relative viability (BI-D1870 + Linsitinib; first compound 4 µM),relative viability (BI-D1870 + Crizotinib; first compound 0.04 µM),relative viability (BI-D1870 + Crizotinib; first compound 0.1265 µM),relative viability (BI-D1870 + Crizotinib; first compound 0.4 µM),relative viability (BI-D1870 + Crizotinib; first compound 1.265 µM),relative viability (BI-D1870 + Crizotinib; first compound 4 µM),relative viability (Zebularine + Pictilisib; first compound 1 µM),relative viability (Zebularine + Pictilisib; first compound 3.162 µM),relative viability (Zebularine + Pictilisib; first compound 10 µM),relative viability (Zebularine + Pictilisib; first compound 31.62 µM),relative viability (Zebularine + Pictilisib; first compound 100 µM),relative viability (BI-D1870 + Foretinib; first compound 0.04 µM),relative viability (BI-D1870 + Foretinib; first compound 0.1265 µM),relative viability (BI-D1870 + Foretinib; first compound 0.4 µM),relative viability (BI-D1870 + Foretinib; first compound 1.265 µM),relative viability (BI-D1870 + Foretinib; first compound 4 µM)
NCI-H520,1,0.846,0.985,0.803,0.678,1.05,0.687,0.766,0.824,0.476,0.362,0.308,0.204,0.268,0.152,0.821,0.724,0.741,0.958,0.818
A549,0.703,0.57,0.588,0.649,0.573,0.873,0.708,0.76,0.618,0.158,0.626,0.482,,0.619,0.209,1.08,0.958,1.01,0.963,0.747
NCI-H460,0.974,0.629,0.655,0.434,0.0477,1.2,0.76,0.84,0.926,0.14,0.424,0.316,0.212,0.243,0.166,1.09,0.869,0.974,1.06,0.305
EKVX,1.14,0.933,1,1.05,0.893,0.929,0.986,0.92,0.941,0.816,0.419,0.456,,0.487,0.401,1.3,0.593,0.619,0.935,0.371
NCI-H358,0.694,0.705,0.812,0.625,0.381,0.772,0.598,0.475,0.456,0.213,0.344,0.28,0.395,0.325,0.212,0.657,0.529,0.669,0.752,0.433
EPLC-272H,1.22,1.15,1.34,1.22,1.14,0.926,0.86,0.904,0.972,0.931,0.342,,,0.297,0.273,0.786,0.539,0.602,0.612,0.508
NCI-H1563,1.4,1.1,1.13,1.07,1.19,0.878,0.893,0.842,0.905,0.905,0.645,0.607,0.636,0.674,0.706,0.957,0.927,0.939,1.04,0.967
NCI-H2126,0.724,0.712,0.694,0.73,0.677,1.09,1.07,0.994,1.04,1.01,0.544,0.434,0.535,0.495,0.43,1.23,1.14,1.22,1.15,1.06
LXF-289,1.05,0.91,0.943,0.947,0.916,0.905,0.796,0.797,0.793,0.619,0.908,0.769,0.792,0.687,0.294,1.01,0.942,0.956,0.941,0.88
NCI-H2009,1.29,1.13,1.23,1.13,0.881,1.06,0.996,0.962,0.609,0.457,0.838,0.782,0.614,0.68,0.37,1.31,1.09,1.23,1.12,1
NCI-H2405,1.07,0.839,0.901,1.06,0.909,0.952,0.863,0.836,0.94,0.795,0.476,0.474,0.399,0.387,0.409,1.09,0.994,1.01,1.05,0.859
NCI-H1755,0.982,0.975,1.04,0.967,0.941,0.977,0.838,0.876,0.829,0.762,0.554,0.433,0.326,0.484,0.36,0.908,0.865,0.882,1.03,0.884
HCC-78,0.54,0.547,0.492,0.533,0.406,0.365,0.318,0.309,0.295,0.245,0.223,0.192,0.211,0.254,0.197,0.599,0.522,0.529,0.592,0.481
LOU-NH91,0.98,0.908,0.996,0.986,0.769,0.8,0.702,0.735,0.75,0.647,0.52,0.471,0.498,0.505,0.451,0.979,0.897,0.876,1.01,0.817
IA-LM,0.824,0.229,0.733,0.983,0.604,1.19,0.942,0.845,0.569,0.176,0.394,0.325,,0.37,0.292,1.24,1.07,1.32,1.03,0.977
NCI-H3122,1.06,0.925,0.988,0.974,1.02,0.283,0.275,0.293,0.28,0.325,0.669,0.575,0.575,0.613,0.593,0.898,0.942,0.96,0.974,0.889
HCC-827,0.992,0.959,0.982,0.977,0.895,0.97,0.912,0.95,0.947,0.821,1.19,0.977,0.835,0.738,0.544,1.05,0.968,0.967,1.06,1.03
SK-LU-1,1.33,0.993,1.09,1.05,0.597,1.14,0.81,0.88,0.859,0.315,0.63,0.495,0.393,0.501,0.31,0.86,0.676,0.739,0.798,0.525
NCI-H1975,1.01,0.849,0.874,0.94,0.636,1.05,0.988,1.01,1.03,0.484,0.305,0.313,0.291,0.253,0.175,0.996,0.849,0.884,0.912,0.847
NCI-H1703,,0.405,0.635,0.772,0.728,1.16,0.613,0.467,0.756,0.356,0.267,,,0.265,0.239,0.381,,0.295,0.355,0.385
NCI-H1651,1.09,0.907,0.962,0.922,0.752,0.91,0.821,0.821,0.939,0.872,0.71,0.732,,0.571,0.418,0.921,0.807,0.882,0.771,0.356
NCI-H441,0.871,0.429,0.481,0.493,0.518,1.01,0.696,0.925,0.738,0.448,0.472,0.438,0.291,0.199,0.188,1.08,0.787,1.05,1.05,0.804
LCLC-103H,1.17,1.02,1.05,1.36,1.06,1.18,0.889,0.868,1.1,1.03,0.564,0.603,0.513,0.612,0.553,0.842,0.662,0.777,0.866,0.566
LCLC-97TM1,0.238,0.158,0.19,0.244,0.193,0.361,0.361,0.36,0.57,0.312,0.184,0.081,0.138,0.124,0.104,1.1,0.975,0.893,1.09,0.843
NCI-H727,0.323,0.328,0.252,0.371,0.261,0.986,0.672,0.938,0.922,0.853,0.385,0.22,0.529,0.373,0.353,0.793,0.931,0.883,0.871,0.739
NCI-H1355,0.842,0.81,0.788,0.788,0.75,1.12,0.985,1.1,1.08,1.11,0.45,0.272,0.371,0.426,0.254,1.05,0.863,0.91,1.07,0.967
HOP-62,1.25,0.997,1.13,1.04,0.91,1.08,0.986,0.963,1.01,0.915,0.579,0.608,0.284,0.287,0.175,1.27,1.03,1.07,1.06,0.924
NCI-H2085,0.93,0.81,0.896,0.885,0.68,0.861,0.561,0.819,0.724,0.772,0.435,0.411,0.444,0.461,0.343,0.82,0.869,0.832,0.824,0.754

# Reference: the supplement of paper PMC10307832
